Results reported in US4480118A, “Carboxylic acid ester and an insecticidal and/or acaricidal composition containing the same” (priority 1981, dated 1984).
Converted amounts (≈) assume the structure as drawn. Read-outs that look alike come from different tables or passages of the source.

How the values were obtained:
housefly [1] = experiment: Insecticidal activity against housefly (Topical application method); assay type: in vivo; conditions: dorsal thorax, adult female, 24 hours
Description: The present compounds and the reference compounds were diluted with acetone to prescribed concentrations. Each 0.5 μl of the diluted samples was applied topically with a microsyringe onto the dorsal thorax of an adult female housefly. The flies were fed and observed for the number of dead and alive insects after 24 hours. LD50 (median lethal dose) was calculated from the mortalities at each dosage by probit method.

northern house mosquito = experiment: Activity of oil spray against adult female northern house mosquito (glass chamber); assay type: in vivo; conditions: for mortality, Northern house mosquito: in vivo, 24 h; for KT50 (50% knockdown time), Northern house mosquito: oil spray 0.5 ml, 10 minutes exposure
Description: (§1) 0.1 Part of each compound Nos. 10, 12, 15, 17, 18, 19, 22, 23 and 29 of this invention is dissolved in deodorized kerosene and made up to 100 parts with kerosene to obtain an oil spray.
(§2) Ten adult houseflies and ten adult female northern house mosquitos were released in a glass chamber, 70×70×70 cm in size. An oil spray preparation (0.5 ml) obtained in Preparation Example 1 was sprayed inside the chamber and the insects were exposed to the descending mist for 10 minutes, during which time the number of knocked-down insects was counted at predetermined time intervals to determine the 50% knockdown time (KT50). On the following day, the dead and alive insects were observed.

housefly [2] = experiment: Activity of oil spray against adult housefly (glass chamber); assay type: in vivo; conditions: oil spray 0.5 ml, 10 minutes exposure; for mortality, House fly: observed on the following day, 1440 min
Description: as §1, §2

housefly [3] = experiment: Insecticidal activity against housefly (Filter paper bait and contact method); assay type: in vivo; conditions: 500 ppm, 48 hours, adult female houseflies; for mortality at 500 ppm: Musca domestica, read-out: Mortality
Description: Each 20 parts of the present compounds No. 1 to No. 29, 10 parts of an emulsifier (Sorpol 3005X; trademark for Toho Chemical Co.) and 70 parts of xylene are thoroughly mixed by stirring to obtain an emulsifiable concentrate of each compound.
A piece of filter paper, 5.5 cm in diameter, was laid on the bottom of a polyethylene cup of the identical inner diameter. An emulsifiable concentrate prepared in the same manner as in Preparation Example 2 was diluted with water. To the filter paper, was added dropwise 0.7 ml of the diluted sample (500 ppm in concentration). Sucrose (30 mg) was placed on the filter paper to serve as bait. Ten adult female houseflies were released into the cup, closed with a cover, and observed for the number of dead and alive insects after 48 hours to calculate the mortality (2 replications).

tobacco cutworm = experiment: Insecticidal activity against tobacco cutworm; assay type: in vivo; conditions: 24 h; for LC50: read-out: LC50 (median lethal concentration), treated artificial diet, third-instar larvae, 24 hours
Description: An artificial diet (15 g) for tobacco cutworm was wet with 2 ml of the prescribed aqueous dilution of an emulsifiable concentrate obtained in Preparation Example 2 or of that obtained from reference compounds. The diet thus treated was placed in a polyethylene cup of 11 cm in diameter.

green rice leafhopper = experiment: Insecticidal activity against green rice leafhopper; conditions: Nephotettix cincticeps, 24 h
[4] = read-out: Percent mortality days after spraying: 0
[5] = read-out: Percent mortality days after spraying: 3
[6] = read-out: Percent mortality days after spraying: 7

CC1(C)[C@@H](C(=O)OC(C#N)c2cccc(Oc3ccccc3)c2)[C@]12Cc1ccccc1O2 (relative stereo) [Compound 17]
LD50 (median lethal dose) (housefly [1]): 0.064 μg/female | mortality, Northern house mosquito (northern house mosquito): 100% | KT50 (50% knockdown time), Northern house mosquito (northern house mosquito): 330 s | KT50 (50% knockdown time), House fly (housefly [2]): 264 s | mortality, House fly (housefly [2]): 80% | mortality at 500 ppm (housefly [3]): 100%

CC1(C)[C@@H](C(=O)OC(C#N)c2cccc(Oc3ccccc3)c2)[C@@]12Cc1ccccc1O2 (relative stereo) [Compound 18]
LD50 (median lethal dose) (housefly [1]): 0.0061 μg/female | mortality, Northern house mosquito (northern house mosquito): 100% | KT50 (50% knockdown time), Northern house mosquito (northern house mosquito): 456 s | LC50 (tobacco cutworm): 1.8 µg/mL (≈ 4.23 µM) | KT50 (50% knockdown time), House fly (housefly [2]): 600 s | mortality, House fly (housefly [2]): 10% | mortality at 500 ppm (housefly [3]): 100%

CC1(C)C(C(=O)OC(C#N)c2cccc(Oc3ccccc3)c2)C12Cc1c(F)c(F)c(F)c(F)c1C2 (stereo not drawn) [Compound 1]
LD50 (median lethal dose) (housefly [1]): 0.0052 μg/female | LC50 (tobacco cutworm): 3.5 µg/mL (≈ 7.06 µM) | mortality at 50 ppm (green rice leafhopper; [4]): 100% | mortality at 50 ppm (green rice leafhopper; [5]): 100% | mortality at 50 ppm (green rice leafhopper; [6]): 86% | mortality at 500 ppm (housefly [3]): 100%

CC1(C)C(C(=O)OC(C#N)c2cccc(Oc3ccccc3)c2)C12Cc1ccccc1C2 (stereo not drawn) [Compound 2]
LD50 (median lethal dose) (housefly [1]): 0.0045 μg/female | LC50 (tobacco cutworm): 2 µg/mL (≈ 4.72 µM) | mortality at 50 ppm (green rice leafhopper; [4]): 100% | mortality at 50 ppm (green rice leafhopper; [5]): 100% | mortality at 50 ppm (green rice leafhopper; [6]): 100% | mortality at 500 ppm (housefly [3]): 100%

CC1(C)C(C(=O)OC(C#N)c2cccc(Oc3ccccc3)c2)C12Cc1ccc(Cl)cc1C2 (stereo not drawn) [Compound 3]
LD50 (median lethal dose) (housefly [1]): 0.0076 μg/female | LC50 (tobacco cutworm): 3.3 µg/mL (≈ 7.21 µM) | mortality at 50 ppm (green rice leafhopper; [4]): 100% | mortality at 50 ppm (green rice leafhopper; [5]): 100% | mortality at 50 ppm (green rice leafhopper; [6]): 100% | mortality at 500 ppm (housefly [3]): 100%

CC1(C)C(C(=O)OC(C#N)c2cccc(Oc3ccccc3)c2)C12Cc1ccc(F)cc1C2 (stereo not drawn) [Compound 4]
LD50 (median lethal dose) (housefly [1]): 0.0042 μg/female | LC50 (tobacco cutworm): 1 µg/mL (≈ 2.26 µM) | mortality at 500 ppm (housefly [3]): 100%

CC1(C)C(C(=O)OC(C#N)c2cccc(Oc3ccccc3)c2)C12Cc1ccc(Br)cc1C2 (stereo not drawn) [Compound 5]
LD50 (median lethal dose) (housefly [1]): 0.018 μg/female | LC50 (tobacco cutworm): 7.2 µg/mL (≈ 14.3 µM) | mortality at 50 ppm (green rice leafhopper; [4]): 100% | mortality at 50 ppm (green rice leafhopper; [5]): 100% | mortality at 50 ppm (green rice leafhopper; [6]): 100% | mortality at 500 ppm (housefly [3]): 100%

CC1(C)C(C(=O)OC(C#N)c2cccc(Oc3ccccc3)c2)C12Cc1cccc(F)c1C2 (stereo not drawn) [Compound 6]
mortality at 500 ppm (housefly [3]): 100%

CC1(C)C(C(=O)OC(C#N)c2ccc(F)c(Oc3ccccc3)c2)C12Cc1ccccc1C2 (stereo not drawn) [Compound 7]
LD50 (median lethal dose) (housefly [1]): 0.0044 μg/female | LC50 (tobacco cutworm): 1.8 µg/mL (≈ 4.08 µM) | mortality at 50 ppm (green rice leafhopper; [4]): 100% | mortality at 50 ppm (green rice leafhopper; [5]): 100% | mortality at 50 ppm (green rice leafhopper; [6]): 100% | mortality at 500 ppm (housefly [3]): 100%

CC1(C)C(C(=O)O[C@H](C#N)c2cccc(Oc3ccccc3)c2)C12Cc1ccccc1C2 (stereo partly drawn) [Compound 8]
LD50 (median lethal dose) (housefly [1]): 0.0032 μg/female | LC50 (tobacco cutworm): 1.1 µg/mL (≈ 2.6 µM) | mortality at 500 ppm (housefly [3]): 100%

CC1(C)C(C(=O)O[C@H](C#N)c2cccc(Oc3ccccc3)c2)C12Cc1ccccc1C2 (stereo partly drawn) [Compound 9]
LD50 (median lethal dose) (housefly [1]): 0.0013 μg/female | LC50 (median lethal concentration) (tobacco cutworm; tobacco cutworm, in vivo): 0.6 ppm | Mortality (housefly [3]): 100%

CC1(C)C(C(=O)OCc2coc(Cc3ccccc3)c2)C12Cc1ccccc1C2 (stereo not drawn) [Compound 11]
LD50 (median lethal dose) (housefly [1]): 0.023 μg/female | mortality at 500 ppm (housefly [3]): 100%

CC1(C)C(C(=O)OCN2C(=O)C3=C(CCCC3)C2=O)C12Cc1ccccc1C2 (stereo not drawn) [Compound 12]
mortality, Northern house mosquito (northern house mosquito): 95% | KT50 (50% knockdown time), Northern house mosquito (northern house mosquito): 400 s | KT50 (50% knockdown time), House fly (housefly [2]): 125 s | mortality, House fly (housefly [2]): 10% | mortality at 500 ppm (housefly [3]): 100%

CC1(C)C(C(=O)OCc2cccc(Cc3ccccc3)c2)C12Cc1ccccc1C2 (stereo not drawn) [Compound 13]
mortality at 50 ppm (green rice leafhopper; [4]): 100% | mortality at 50 ppm (green rice leafhopper; [5]): 93% | mortality at 50 ppm (green rice leafhopper; [6]): 100% | mortality at 500 ppm (housefly [3]): 100%

C#CC(OC(=O)C1C(C)(C)C12Cc1ccccc1C2)C(C)=CCC (stereo not drawn) [Compound 14]
mortality at 500 ppm (housefly [3]): 100%

CC1(C)C(C(=O)OC(C#N)c2cccc(Oc3ccc(Br)cc3)c2)C12Cc1ccccc1C2 (stereo not drawn) [Compound 16]
mortality at 50 ppm (green rice leafhopper; [4]): 100% | mortality at 50 ppm (green rice leafhopper; [5]): 100% | mortality at 50 ppm (green rice leafhopper; [6]): 97% | mortality at 500 ppm (housefly [3]): 100%
